Measured values taken from patent US20240270821A1, “GIP/GLP1/GCG TRI-RECEPTOR AGONISTS AND USES THEREOF” (priority 2023, published 2024).
Starred links: 1 amine or outer side, 2 acyl side, 3 side chain; linkers in the order of their positions; H or OH if unused. Non-standard residues stand in square brackets, D forms with d. Residues, ends and D or L forms follow the SMILES beside them. Groups on a side chain read outwards from the residue. *: point of attachment. C18 diacid = O=C(O)CCCCCCCCCCCCCCCCC(=O)*; αMePhe(2-F) = C[C@](N)(Cc1ccccc1F)C(=O)O; γGlu = O=C(O)[C@H](CCC(=O)[*:2])N[*:1]; αMeL = CC(C)C[C@](C)(N)C(=O)O; AEEA = NCCOCCOCC(=O)O; Aib = CC(C)(N)C(=O)O

Experiments:
Format in all cases: cell-based
hGIPR [1] = target: T1, hGIPR (Homo sapiens, UniProt P48546); assay: Functional cAMP activity in the presence of 1% HSA; details: read-out: cAMP Rel EC50, hGIPR
T1 sequence (P48546 22-466): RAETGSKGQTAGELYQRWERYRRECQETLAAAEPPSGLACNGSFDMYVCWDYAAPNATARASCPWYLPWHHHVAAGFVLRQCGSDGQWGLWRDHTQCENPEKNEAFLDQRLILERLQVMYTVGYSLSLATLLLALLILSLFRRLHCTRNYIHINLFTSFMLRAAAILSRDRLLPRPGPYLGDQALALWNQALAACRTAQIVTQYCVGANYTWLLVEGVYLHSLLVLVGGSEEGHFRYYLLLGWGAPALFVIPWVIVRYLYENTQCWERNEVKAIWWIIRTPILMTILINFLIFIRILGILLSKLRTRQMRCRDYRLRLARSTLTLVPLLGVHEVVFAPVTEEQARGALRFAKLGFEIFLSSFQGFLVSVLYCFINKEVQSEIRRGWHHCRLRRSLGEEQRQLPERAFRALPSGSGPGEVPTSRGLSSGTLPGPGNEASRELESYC

human GcgR = human GcgR (Homo sapiens, UniProt P47871); assay: Functional cAMP activity in the presence of 1% HSA; details: read-out: cAMP Rel EC50, hGcgR
hGLP-1R [2] = target: T2, hGLP-1R (Homo sapiens, UniProt P43220); assay: Functional cAMP activity in the presence of 1% HSA; details: read-out: cAMP Rel EC50, hGLP-1R
hGLP-1R [3] = target: T2, hGLP-1R; assay: Functional cAMP activation in the presence of 0.1% casein (no HSA); details: read-out: Relative cAMP EC50, hGLP-1R;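 for Relative cAMP EC50, hGIPR: intracellular cAMP rise after 30 min at 37 °C read by HTRF against a standard curve, scaled between buffer alone (0%) and top control ligand concentration (100%), four-parameter fit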;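 for Relative cAMP EC50, hGLP-1R: intracellular cAMP rise after 30 min at 37 °C read by HTRF, normalized between buffer only (0%) and maximal control ligand (100%), four-parameter variable-slope fit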;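 for Relative cAMP EC50, hGcgR: intracellular cAMP rise after 30 min at 37 °C, read by HTRF against a cAMP standard curve, scaled from buffer only (0%) to maximal control ligand response (100%)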
Description: (§1) After a 30-minute incubation at 37° C., the resulting increase in intracellular cAMP is quantitatively determined using the CisBio CAMP Dynamic 2 HTRF Assay Kit (62AM4PEJ). Briefly, cAMP levels within the cell are detected by adding the cAMP-d2 conjugate in cell lysis buffer followed by the antibody anti-cAMP-Eu^3+-Cryptate, also in cell lysis buffer.
(§2) Intracellular cAMP levels are determined by extrapolation using a standard curve. Dose response curves of compounds are plotted as the percentage of stimulation normalized to minimum (buffer only) and maximum (maximum concentration of each control ligand) values and analyzed using a four parameter non-linear regression fit with a variable slope (Genedata Screener 13). EC50 is the concentration of compound causing half-maximal simulation in a dose response curve. Each relative EC50 value for the Geometric mean calculation is determined from a curve fitting.

hGIPR [4] = target: T1, hGIPR; assay: as above; details: read-out: Relative cAMP EC50, hGIPR
hGcgR = hGcgR (Homo sapiens, UniProt P47871); assay: as above; details: read-out: Relative cAMP EC50, hGcgR;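 note: intracellular cAMP rise after 30 min at 37 °C, read by HTRF against a cAMP standard curve, scaled from buffer only (0%) to maximal control ligand response (100%)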
hGcgR, sequence (P47871 26-477): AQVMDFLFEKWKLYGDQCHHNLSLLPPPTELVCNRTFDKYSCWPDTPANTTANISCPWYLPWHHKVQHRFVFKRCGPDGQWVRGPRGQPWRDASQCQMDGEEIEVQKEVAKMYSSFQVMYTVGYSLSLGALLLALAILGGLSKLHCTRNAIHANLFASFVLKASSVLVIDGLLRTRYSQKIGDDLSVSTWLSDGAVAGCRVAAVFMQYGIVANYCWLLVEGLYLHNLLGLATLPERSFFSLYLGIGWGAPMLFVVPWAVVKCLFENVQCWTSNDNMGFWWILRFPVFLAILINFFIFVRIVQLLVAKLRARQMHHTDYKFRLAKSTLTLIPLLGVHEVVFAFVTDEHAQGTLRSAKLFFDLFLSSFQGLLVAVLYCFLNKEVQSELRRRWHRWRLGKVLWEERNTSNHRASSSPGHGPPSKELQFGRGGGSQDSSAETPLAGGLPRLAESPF
Description: as §1, §2

T2 sequence (P43220 24-463): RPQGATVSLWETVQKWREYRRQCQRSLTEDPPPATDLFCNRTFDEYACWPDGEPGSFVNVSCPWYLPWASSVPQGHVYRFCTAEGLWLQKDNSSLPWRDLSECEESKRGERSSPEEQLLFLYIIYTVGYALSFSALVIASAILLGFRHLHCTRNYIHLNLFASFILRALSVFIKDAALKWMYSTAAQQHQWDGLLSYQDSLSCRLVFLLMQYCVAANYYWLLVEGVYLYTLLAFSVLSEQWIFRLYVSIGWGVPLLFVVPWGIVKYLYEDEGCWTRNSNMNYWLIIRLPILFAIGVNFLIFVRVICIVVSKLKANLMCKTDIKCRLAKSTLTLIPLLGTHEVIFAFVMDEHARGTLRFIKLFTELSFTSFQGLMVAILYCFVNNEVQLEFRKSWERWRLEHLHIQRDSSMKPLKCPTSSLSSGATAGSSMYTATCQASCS
human GcgR, sequence (P47871 26-477): as the sequence (P47871 26-477) above

`CC[C@H](C)[C@H](NC(=O)[C@H](Cc1ccccc1)NC(=O)[C@H](C)NC(=O)C(C)(C)NC(=O)[C@H](CCC(N)=O)NC(=O)[C@H](C)NC(=O)[C@H](CCCCNC(=O)COCCOCCNC(=O)CC[C@H](NC(=O)CCCCCCCCCCCCCCCCC(=O)O)C(=O)O)NC(=O)[C@H](CCCCN)NC(=O)[C@H](CC(=O)O)NC(=O)[C@H](CC(C)C)NC(=O)[C@](C)(CC(C)C)NC(=O)[C@@H](NC(=O)[C@H](CO)NC(=O)[C@H](Cc1ccc(O)cc1)NC(=O)[C@H](CC(=O)O)NC(=O)[C@H](CO)NC(=O)[C@@H](NC(=O)[C@](C)(Cc1ccccc1F)NC(=O)[C@@H](NC(=O)CNC(=O)[C@H](CCC(N)=O)NC(=O)C(C)(C)NC(=O)[C@@H](N)Cc1ccc(O)cc1)[C@@H](C)O)[C@@H](C)O)[C@@H](C)CC)C(=O)N[C@@H](CCC(=O)O)C(=O)N[C@@H](Cc1ccc(O)cc1)C(=O)N[C@@H](CC(C)C)C(=O)N[C@@H](CCC(=O)O)C(=O)N[C@@H](CCC(=O)O)C(=O)NCC(=O)NCC(=O)N1CCC[C@H]1C(=O)N[C@@H](CO)C(=O)N[C@@H](CO)C(=O)NCC(=O)N[C@@H](C)C(=O)N1CCC[C@H]1C(=O)N1CCC[C@H]1C(=O)N1CCC[C@H]1C(=O)N[C@@H](CO)C(=O)N[C@@H](CCC(=O)O)C(N)=O` [Example 424] (H-Y[Aib]QGT[αMePhe(2-F)]TSDYSI[αMeL]LDKK([AEEA-γGlu-C18 diacid])AQ[Aib]AFIEYLEEGGPSSGAPPPSE-NH2) gave an EC50 (hGIPR [1]) of 3.21 nM, an EC50 (human GcgR) of 443 nM and an EC50 (hGLP-1R [2]) of 29.5 nM. It also gave an EC50 (hGLP-1R [3]) of 0.318 nM, an EC50 (hGIPR [4]) of 0.0154 nM and an EC50 (hGcgR) of 3.12 nM.
`CC[C@H](C)[C@H](NC(=O)[C@H](Cc1ccccc1)NC(=O)[C@H](C)NC(=O)C(C)(C)NC(=O)[C@H](CCC(N)=O)NC(=O)[C@H](C)NC(=O)[C@H](CCCCNC(=O)COCCOCCNC(=O)CC[C@H](NC(=O)CCCCCCCCCCCCCCCCC(=O)O)C(=O)O)NC(=O)[C@H](CCCCN)NC(=O)[C@H](CC(=O)O)NC(=O)[C@H](CC(C)C)NC(=O)[C@H](CC(C)C)NC(=O)[C@@H](NC(=O)[C@H](CO)NC(=O)[C@H](Cc1ccc(O)cc1)NC(=O)[C@H](CC(=O)O)NC(=O)[C@H](CO)NC(=O)[C@@H](NC(=O)[C@](C)(Cc1ccccc1F)NC(=O)[C@@H](NC(=O)CNC(=O)[C@H](CCC(N)=O)NC(=O)C(C)(C)NC(=O)[C@@H](N)Cc1c[nH]cn1)[C@@H](C)O)[C@@H](C)O)[C@@H](C)CC)C(=O)N[C@@H](CCC(=O)O)C(=O)N[C@@H](Cc1ccc(O)cc1)C(=O)N[C@@H](CC(C)C)C(=O)N[C@@H](CCC(=O)O)C(=O)N[C@@H](CCC(=O)O)C(=O)NCC(=O)NCC(=O)N1CCC[C@H]1C(=O)N[C@@H](CO)C(=O)N[C@@H](CO)C(=O)NCC(=O)N[C@@H](C)C(=O)N1CCC[C@H]1C(=O)N1CCC[C@H]1C(=O)N1CCC[C@H]1C(=O)N[C@@H](CO)C(N)=O` [Example 425] (H-H[Aib]QGT[αMePhe(2-F)]TSDYSILLDKK([AEEA-γGlu-C18 diacid])AQ[Aib]AFIEYLEEGGPSSGAPPPS-NH2; N-terminus assumed) showed an EC50 (hGIPR [1]) of 46.9 nM, an EC50 (human GcgR) of 1150 nM and an EC50 (hGLP-1R [2]) of 20.3 nM. For the same compound, the EC50 (hGLP-1R [3]) was 0.15 nM, the EC50 (hGIPR [4]) was 0.0997 nM and the EC50 (hGcgR) was 5.49 nM.
`CC[C@H](C)[C@H](NC(=O)[C@H](Cc1ccccc1)NC(=O)[C@H](C)NC(=O)C(C)(C)NC(=O)[C@H](CCC(N)=O)NC(=O)[C@H](C)NC(=O)[C@H](CCCCNC(=O)CC[C@H](NC(=O)CC[C@H](NC(=O)CCCCCCCCCCCCCCCCC(=O)O)C(=O)O)C(=O)O)NC(=O)[C@H](CCCCN)NC(=O)[C@H](CC(=O)O)NC(=O)[C@H](CC(C)C)NC(=O)[C@H](CC(C)C)NC(=O)[C@@H](NC(=O)[C@H](CO)NC(=O)[C@H](Cc1ccc(O)cc1)NC(=O)[C@H](CC(=O)O)NC(=O)[C@H](CO)NC(=O)[C@@H](NC(=O)[C@](C)(Cc1ccccc1F)NC(=O)[C@@H](NC(=O)CNC(=O)[C@H](CCC(N)=O)NC(=O)C(C)(C)NC(=O)[C@@H](N)Cc1c[nH]cn1)[C@@H](C)O)[C@@H](C)O)[C@@H](C)CC)C(=O)N[C@@H](CCC(=O)O)C(=O)N[C@@H](Cc1ccc(O)cc1)C(=O)N[C@@H](CC(C)C)C(=O)N[C@@H](CCC(=O)O)C(=O)N[C@@H](CCC(=O)O)C(=O)NCC(=O)NCC(=O)N1CCC[C@H]1C(=O)N[C@@H](CO)C(=O)N[C@@H](CO)C(=O)NCC(=O)N[C@@H](C)C(=O)N1CCC[C@H]1C(=O)N1CCC[C@H]1C(=O)N1CCC[C@H]1C(=O)N[C@@H](CO)C(N)=O` [Example 426] (H-H[Aib]QGT[αMePhe(2-F)]TSDYSILLDKK([γGlu-γGlu-C18 diacid])AQ[Aib]AFIEYLEEGGPSSGAPPPS-NH2) showed an EC50 (hGIPR [1]) of 29.8 nM, an EC50 (human GcgR) of 740 nM and an EC50 (hGLP-1R [2]) of 16.6 nM. For the same compound, the EC50 (hGLP-1R [3]) was 0.139 nM, the EC50 (hGIPR [4]) was 0.079 nM and the EC50 (hGcgR) was 4.33 nM.
Compound `CC[C@H](C)[C@H](NC(=O)[C@H](CO)NC(=O)[C@H](Cc1ccc(O)cc1)NC(=O)[C@H](CC(=O)O)NC(=O)[C@H](CO)NC(=O)[C@@H](NC(=O)[C@](C)(Cc1ccccc1F)NC(=O)[C@@H](NC(=O)CNC(=O)[C@H](CCC(N)=O)NC(=O)C(C)(C)NC(=O)[C@@H](N)Cc1ccc(O)cc1)[C@@H](C)O)[C@@H](C)O)C(=O)N[C@@H](CC(C)C)C(=O)N[C@@H](CC(C)C)C(=O)N[C@@H](CC(=O)O)C(=O)N[C@@H](CCCN)C(=O)N[C@@H](CCCCNC(=O)COCCOCCNC(=O)COCCOCCNC(=O)CC[C@H](NC(=O)CCCCCCCCCCCCCCCCC(=O)O)C(=O)O)C(=O)N[C@@H](C)C(=O)N[C@@H](CCC(N)=O)C(=O)NC(C)(C)C(=O)N[C@@H](C)C(=O)N[C@@H](Cc1ccccc1)C(=O)N[C@H](C(=O)N[C@H](CCC(=O)O)C(=O)N[C@@H](Cc1ccc(O)cc1)C(=O)N[C@@H](CC(C)C)C(=O)N[C@@H](CC(C)C)C(=O)N[C@@H](CCC(=O)O)C(=O)NCC(=O)NCC(=O)N1CCC[C@H]1C(=O)N[C@@H](CO)C(=O)N[C@@H](CO)C(=O)NCC(=O)N[C@@H](C)C(=O)N1CCC[C@H]1C(=O)N1CCC[C@H]1C(=O)N1CCC[C@H]1C(=O)N[C@@H](CO)C(N)=O)[C@@H](C)CC` [Example 427] has an EC50 (hGIPR [1]) of 4.25 nM, an EC50 (human GcgR) of 1440 nM and an EC50 (hGLP-1R [2]) of 42.9 nM. It also gave an EC50 (hGLP-1R [3]) of 0.282 nM, an EC50 (hGIPR [4]) of 0.0121 nM and an EC50 (hGcgR) of 3.81 nM.
For `CC[C@H](C)[C@H](NC(=O)[C@H](CO)NC(=O)[C@H](Cc1ccc(O)cc1)NC(=O)[C@H](CC(=O)O)NC(=O)[C@H](CO)NC(=O)[C@@H](NC(=O)[C@](C)(Cc1ccccc1F)NC(=O)[C@@H](NC(=O)CNC(=O)[C@H](CCC(N)=O)NC(=O)C(C)(C)NC(=O)[C@@H](N)Cc1ccc(O)cc1)[C@@H](C)O)[C@@H](C)O)C(=O)N[C@@H](CC(C)C)C(=O)N[C@@H](CC(C)C)C(=O)N[C@@H](CC(=O)O)C(=O)N[C@@H](CCCN)C(=O)N[C@@H](CCCCNC(=O)CC[C@H](NC(=O)CC[C@H](NC(=O)CCCCCCCCCCCCCCCCC(=O)O)C(=O)O)C(=O)O)C(=O)N[C@@H](C)C(=O)N[C@@H](CCC(N)=O)C(=O)NC(C)(C)C(=O)N[C@@H](C)C(=O)N[C@@H](Cc1ccccc1)C(=O)N[C@H](C(=O)N[C@H](CCC(=O)O)C(=O)N[C@@H](Cc1ccc(O)cc1)C(=O)N[C@@H](CC(C)C)C(=O)N[C@@H](CC(C)C)C(=O)N[C@@H](CCC(=O)O)C(=O)NCC(=O)NCC(=O)N1CCC[C@H]1C(=O)N[C@@H](CO)C(=O)N[C@@H](CO)C(=O)NCC(=O)N[C@@H](C)C(=O)N1CCC[C@H]1C(=O)N1CCC[C@H]1C(=O)N1CCC[C@H]1C(=O)N[C@@H](CO)C(N)=O)[C@@H](C)CC` [Example 428], the EC50 (hGIPR [1]) was 4.55 nM, the EC50 (human GcgR) was 536 nM and the EC50 (hGLP-1R [2]) was 38.2 nM. The EC50 (hGLP-1R [3]) was 0.207 nM, the EC50 (hGIPR [4]) was 0.01 nM and the EC50 (hGcgR) was 2.35 nM.
`CC[C@H](C)[C@H](NC(=O)[C@H](CCCCN)NC(=O)[C@H](CC(=O)O)NC(=O)[C@H](CC(C)C)NC(=O)[C@H](CC(C)C)NC(=O)[C@@H](NC(=O)[C@H](CO)NC(=O)[C@H](Cc1ccc(O)cc1)NC(=O)[C@H](CC(=O)O)NC(=O)[C@H](CO)NC(=O)[C@@H](NC(=O)[C@](C)(Cc1ccccc1F)NC(=O)[C@@H](NC(=O)CNC(=O)[C@H](CCC(N)=O)NC(=O)C(C)(C)NC(=O)[C@@H](N)Cc1ccc(O)cc1)[C@@H](C)O)[C@@H](C)O)[C@@H](C)CC)C(=O)N[C@@H](C)C(=O)N[C@@H](CCC(N)=O)C(=O)NC(C)(C)C(=O)N[C@@H](C)C(=O)N[C@@H](Cc1ccccc1)C(=O)N[C@H](C(=O)N[C@@H](CCCCNC(=O)COCCOCCNC(=O)CC[C@H](NC(=O)CCCCCCCCCCCCCCCCC(=O)O)C(=O)O)C(=O)N[C@@H](Cc1ccc(O)cc1)C(=O)N[C@@H](CC(C)C)C(=O)N[C@@H](CCC(=O)O)C(=O)N[C@@H](CCC(=O)O)C(=O)NCC(=O)NCC(=O)N1CCC[C@H]1C(=O)N[C@@H](CO)C(=O)N[C@@H](CO)C(=O)NCC(=O)N[C@@H](C)C(=O)N1CCC[C@H]1C(=O)N1CCC[C@H]1C(=O)N1CCC[C@H]1C(=O)N[C@@H](CO)C(N)=O)[C@@H](C)CC` [Example 430] (H-Y[Aib]QGT[αMePhe(2-F)]TSDYSILLDKIAQ[Aib]AFIK([AEEA-γGlu-C18 diacid])YLEEGGPSSGAPPPS-NH2; N-terminus assumed) was tested, and the EC50 (hGIPR [1]) was 4.65 nM, the EC50 (human GcgR) was 559 nM and the EC50 (hGLP-1R [2]) was 78.9 nM. For the same compound, the EC50 (hGLP-1R [3]) was 0.438 nM, the EC50 (hGIPR [4]) was 0.0144 nM and the EC50 (hGcgR) was 2.11 nM.
